Test results as given in PubChem BioAssay AID330 (DTP/NCI, 2004).
Several values for one entry are separate records, joined by “and”; a condition that tells them apart may be missing. Equal entries are not always repeated. Toxic doses and inconclusive results are not listed. Rule for the calls: active = survival T/C of 150% or more; inactive = T/C below 125% in these data.

Test system: P388 leukemia ip, CD2F1 mice, survival T/C
Assay: NCI In Vivo Anticancer Drug Screen. Data for tumor model P388 Leukemia (intraperitoneal) in CD2F1 (CDF1) mice
Settings: endpoint: median survival time, higher = longer survival
Method in brief: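 Mice carrying the transplanted tumor received test compound or vehicle. Survival was recorded in each group, and the value is the treated-group measurement divided by that of the vehicle-treated control group.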

[1] = dose: 25.0 mg/kg/injection, schedule: Q01DX009 (ip), vehicle: Klucel (hydroxypropylcellulose) (HPC)
[2] = dose: 50.0 mg/kg/injection, schedule: Q01DX009 (ip), vehicle: Klucel (hydroxypropylcellulose) (HPC)
[3] = dose: 100.0 mg/kg/injection, schedule: Q01DX009 (ip), vehicle: Klucel (hydroxypropylcellulose) (HPC)

Measured: T/C

O=C(OCCN1CCN(CCCN2c3ccccc3Sc3ccc(C(F)(F)F)cc32)CC1)C12CC3CC(CC(C3)C1)C2
inactive: dose: 3.12 mg/kg/injection, schedule: Q01DX009 (ip), vehicle: Klucel (hydroxypropylcellulose) (HPC) 105 % of control | dose: 6.25 mg/kg/injection, schedule: Q01DX009 (ip), vehicle: Klucel (hydroxypropylcellulose) (HPC) 103 % of control and 96 % of control | dose: 12.5 mg/kg/injection, schedule: Q01DX009 (ip), vehicle: Klucel (hydroxypropylcellulose) (HPC) 110 % of control and 112 % of control and 97 % of control | [1] 112 % of control | [2] 113 % of control | [3] 118 % of control

CC1=C(C)Cn2c(=O)c3cc4ccccc4cc3c(=O)n2C1
inactive: [2] 90 % of control | [3] 90 % of control

Cc1cc(=O)c2c(C)nn(-c3ccccc3)c2[nH]1
inactive: dose: 15.0 mg/kg/injection, schedule: Q01DX005 (ip), vehicle: Klucel (hydroxypropylcellulose) (HPC) 98 % of control | dose: 30.0 mg/kg/injection, schedule: Q01DX005 (ip), vehicle: Klucel (hydroxypropylcellulose) (HPC) 100 % of control | dose: 60.0 mg/kg/injection, schedule: Q01DX005 (ip), vehicle: Klucel (hydroxypropylcellulose) (HPC) 94 % of control | dose: 240.0 mg/kg/injection, schedule: Q01DX005 (ip), vehicle: Klucel (hydroxypropylcellulose) (HPC) 93 % of control

Cn1c(-c2ccccc2)c2c(c1-c1ccccc1)C(=O)c1ccccc1C2=O
inactive: [2] 95 % of control | [3] 101 % of control | dose: 200.0 mg/kg/injection, schedule: Q01DX009 (ip), vehicle: Klucel (hydroxypropylcellulose) (HPC) 100 % of control

CCSC(C(OC(C)=O)C(OC(C)=O)C(COC(C)=O)OC(C)=O)n1cc(F)c(=O)[nH]c1=O (stereo not drawn)
inactive: dose: 25.0 mg/kg/injection, schedule: Q01DX005 (ip), vehicle: other 97 % of control | dose: 50.0 mg/kg/injection, schedule: Q01DX005 (ip), vehicle: other 110 % of control | dose: 100.0 mg/kg/injection, schedule: Q01DX005 (ip), vehicle: other 105 % of control | dose: 200.0 mg/kg/injection, schedule: Q01DX005 (ip), vehicle: other 107 % of control | dose: 400.0 mg/kg/injection, schedule: Q01DX005 (ip), vehicle: other 100 % of control | dose: 400.0 mg/kg/injection, schedule: Q01DX009 (ip), vehicle: other 92 % of control

COC(=O)C1CCC(/C(C#N)=C2/CCC(C(=O)OC)[N-]2)=N1.COC(=O)C1CCC(/C(C#N)=C2/CCC(C(=O)OC)[N-]2)=N1.[Cu+2] (stereo not drawn)
inactive: dose: 60.0 mg/kg/injection, schedule: Q01DX005 (ip), vehicle: saline with Tween-80 103 % of control | dose: 120.0 mg/kg/injection, schedule: Q01DX005 (ip), vehicle: saline with Tween-80 94 % of control

N=C(N)SCc1ccc([N+](=O)[O-])cc1
inactive: [1] 102 % of control | [2] 107 % of control

O=C1NC2(c3ccccc3)NC(=O)NC2(c2ccccc2)N1 (stereo not drawn)
inactive: dose: 50.0 mg/kg/injection, schedule: Q01DX009 (ip), vehicle: saline 99 % of control | dose: 100.0 mg/kg/injection, schedule: Q01DX009 (ip), vehicle: saline 93 % of control | dose: 100.0 mg/kg/injection, schedule: Q04DX003 (ip), vehicle: saline with Tween-80 100 % of control | dose: 100.0 mg/kg/injection, schedule: Q04DX003 (ip), vehicle: saline 94 % of control | dose: 200.0 mg/kg/injection, schedule: Q01DX009 (ip), vehicle: saline 96 % of control | dose: 200.0 mg/kg/injection, schedule: Q04DX003 (ip), vehicle: saline with Tween-80 100 % of control | dose: 200.0 mg/kg/injection, schedule: Q04DX003 (ip), vehicle: saline 94 % of control | dose: 400.0 mg/kg/injection, schedule: Q04DX003 (ip), vehicle: saline with Tween-80 86 % of control | dose: 400.0 mg/kg/injection, schedule: Q04DX003 (ip), vehicle: saline 92 % of control

CC1(C)N=NC2(Br)C3CCC(C3)C12 (stereo not drawn)
inactive: dose: 100.0 mg/kg/injection, schedule: Q04DX002 (ip), vehicle: Klucel (hydroxypropylcellulose) (HPC) 102 % of control | dose: 200.0 mg/kg/injection, schedule: Q04DX002 (ip), vehicle: Klucel (hydroxypropylcellulose) (HPC) 97 % of control | dose: 400.0 mg/kg/injection, schedule: Q04DX002 (ip), vehicle: Klucel (hydroxypropylcellulose) (HPC) 100 % of control

COc1cccc2c1C(=O)c1c(O)c3c(c(O)c1C2=O)CC(O)(C(C)=O)CC3OC1CC(NC2CCOCC2)C(O)C(C)O1 (stereo not drawn)
inactive: dose: 3.12 mg/kg/injection, schedule: Q04DX003 (ip), vehicle: water 101 % of control | dose: 6.25 mg/kg/injection, schedule: Q04DX003 (ip), vehicle: water 101 % of control and 107 % of control | dose: 12.5 mg/kg/injection, schedule: Q04DX003 (ip), vehicle: water 102 % of control and 107 % of control | dose: 25.0 mg/kg/injection, schedule: Q04DX003 (ip), vehicle: water 118 % of control | dose: 50.0 mg/kg/injection, schedule: Q04DX003 (ip), vehicle: water 120 % of control | dose: 200.0 mg/kg/injection, schedule: Q04DX003 (ip), vehicle: water 111 % of control
